The record followed here is PubChem BioAssay AID1189 (EPA DSSTox, 2008).

Activity calls are given as the source filed them.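 Rule for the calls: active = a tumor-causing dose value with its tumor site reported for any sex and species group of a rodent or other animal cancer study; inconclusive = only studies judged inadequate by the national testing program; inactive = tested in at least one study, none positive.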

A short description of this data set: DSSTox (CPDBAS) Carcinogenic Potency Database Summary SingleCellCall Results. The settings on record: animal chronic carcinogenicity bioassays, CPDB summary call. A digest of the protocol: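 Literature-derived summary: each substance receives an overall carcinogenic/non-carcinogenic category drawn from long-term bioassays in rats, mice, hamsters, dogs or primates, using the most positive sex-species experiment and minimal evidence criteria.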
Consider `Nc1ncn([C@@H]2O[C@H](CO)[C@@H](O)[C@H]2O)c(=O)n1`, for which the result was active.

Take `CCN(Cc1cccc(S(=O)(=O)O)c1)c1ccc(C(=C2C=CC(=[N+](CC)Cc3cccc(S(=O)(=O)O)c3)C=C2)c2ccc(O)cc2S(=O)(=O)[O-])cc1`: the result was inactive.

Turning to `C[C@H]([C@H](O)CCC(C)(C)O)[C@H]1CC[C@@]2(O)C3=CC(=O)[C@@H]4C[C@@H](O)[C@@H](O)C[C@]4(C)[C@H]3CC[C@]12C`, the outcome is “active; inactive”.

As for `FC(F)(Cl)C(F)(Cl)Cl`, the outcome is “inactive; active”.

With `CC(C)(C)NC(=O)[C@H]1CC[C@H]2[C@@H]3CC[C@H]4NC(=O)C=C[C@]4(C)[C@H]3CC[C@]12C`, the outcome is “active; inactive”.

In the case of `Oc1c(Cl)cc(Cl)cc1Sc1cc(Cl)cc(Cl)c1O`, the result was inactive.

On to `Nc1ccc2oc3ccccc3c2c1`, for which the outcome was active.

On to `CCOP(=S)(OCC)Oc1ccc([N+](=O)[O-])cc1`, for which the outcome was “inactive; active”.

For the compound `O=[N+]([O-])c1c(Cl)c(Cl)c(Cl)c(Cl)c1Cl`, the result was active.

With `O=[Se]=O`, the result was inactive.

On to `CNNC`, for which the result was active.

Consider `Cn1cc(C(=O)[C@@H]2CCc3nc[nH]c3C2)c2ccccc21`, for which the outcome is “inactive; active”.

Consider `CC1=CC(=O)CC(C)(C)C1`, for which the result was active.

Regarding `CCN(Cc1cccc(S(=O)(=O)[O-])c1)c1ccc(C(=C2C=CC(=[N+](C)C)C=C2)c2ccc(N(CC)Cc3cccc(S(=O)(=O)O)c3)cc2)cc1`, the result was active.

As to `O=CCCCC=O`, the outcome was “inactive; active”.

As for `COc1ccc2c3c1O[C@H]1[C@@H](O)C=C[C@H]4[C@@H](C2)N(C)CC[C@@]341`, the outcome was inactive.

For the compound `ClC(Cl)=C(Cl)C(Cl)=C(Cl)Cl`, the outcome was active.

With `C=CCOCC1CO1` (centres undefined), the result was active.

In the case of `CC1=C(CC(=O)O)c2cc(F)ccc2/C1=C\c1ccc(S(C)(=O)=O)cc1`, the outcome was inactive.

In the case of `Cc1cc(=O)n(-c2ccccc2)n1C`, the outcome is “active; inactive”.

Take `C=C(C)C(=O)OC`: the outcome is “inactive; active”.

With `CN(C)CCN(Cc1cccs1)c1ccccc1`, the outcome was inactive.

Regarding `COc1ccc([N+](=O)[O-])cc1N`, the result was active.

Consider `CC(O)COC(C)(C)C` (centres undefined), for which the outcome was active.

Consider `O=NN1CSCSC1`, for which the outcome was inactive.

As to `O=S(=O)(O)c1ccc(N=Nc2c(O)ccc3cc(S(=O)(=O)O)ccc23)cc1`, the result was inactive.

Turning to `CCN(C#N)N=O`, the outcome was active.

Regarding `c1ccc(NNc2ccccc2)cc1`, the outcome was active.

With `O.O.O.O.O.O.O=S(=O)([O-])[O-].[Ni+2]`, the result was inactive.

Turning to `Nc1nc(/C=C/c2ccc([N+](=O)[O-])o2)no1`, the result was active.

Take `CNC[C@H](O)c1cccc(O)c1`: the outcome was inactive.

In the case of `O=C1c2ccccc2C(=O)N1SC(Cl)(Cl)Cl`, the outcome was active.

For the compound `Cc1ccc2c(-c3ccccc3)nc(=O)n(C(C)C)c2c1`, the outcome was inactive.

As for `Cc1ccc(N=Nc2c(O)ccc3ccccc23)c([N+](=O)[O-])c1`, the outcome was active.

Consider `C/C=C1/C[C@@H](C)[C@](O)(CO)C(=O)OCC2=CC[N+]3([O-])CC[C@@H](OC1=O)[C@@H]23` (some centres undefined), for which the outcome was active.

`O=S(=O)(Oc1ccc(Cl)cc1Cl)c1ccccc1`: the result was inactive.

On to `O=C1OC(C(O)CO)C(O)=C1O` (centres undefined), for which the result was inactive.

As for `C1CO1`, the outcome was active.

Regarding `NC(=O)N(CCO)N=O`, the outcome is “active; inactive”.

As to `CCn1c2ccccc2c2cc(N)ccc21`, the result was active.

Regarding `COc1ccc(C(c2ccc(OC)cc2)C(Cl)(Cl)Cl)cc1`, the outcome is “inactive; active”.

Turning to `[O-][Br+2]([O-])O`, the outcome was active.

On to `CN=C(NC#N)NCCSCc1nc[nH]c1C`, for which the outcome is “inactive; active”.

As to `O=NN1CCCCO1`, the result was active.

On to `O=C(Nc1ccc([N+](=O)[O-])cc1Cl)c1cc(Cl)ccc1O`, for which the outcome was inactive.

`F`: the outcome was inactive.

For the compound `c1ccccc1`, the outcome was active.

Take `P`: the outcome was inactive.

As to `CN(C)P(=O)(N(C)C)N(C)C`, the outcome was active.

With `Oc1cccc2cccnc12.Oc1cccc2cccnc12.[Cu]`, the outcome was inactive.

For the compound `CN(CCCO)N=O`, the outcome is “active; inactive”.

For `CCC1(CC)C(=O)N=C(O)NC1=O`, the outcome is “active; inactive”.

For `CCN(CC)C(=S)S[Te](SC(=S)N(CC)CC)(SC(=S)N(CC)CC)SC(=S)N(CC)CC`, the outcome was inactive.

Take `O=C([O-])C(=O)O.O=C([O-])C(=O)O.[K+].[K+].[O]=[Ti]`: the outcome is “inactive; active”.

Turning to `COc1cc(/C=C/C(=O)OCCc2ccccc2)ccc1O`, the outcome is “inactive; active”.

With `S=C1NCCN1`, the outcome was “active; inactive”.

With `CN(C)CCN(C)N=O`, the outcome was “active; inactive”.

`O=[N+]([O-])/C=C/c1ccccc1`: the outcome was inactive.

With `CC(C)(C)NCC(O)c1cc(O)cc(O)c1` (centres undefined), the outcome was active.

In the case of `c1ccc2c(c1)[nH]c1ccccc12`, the result was active.

Turning to `Nc1nc(N)nc(-c2ccc([N+](=O)[O-])o2)n1`, the result was active.

For `C=CCOC(=O)c1ccccc1C(=O)OCC=C`, the result was inactive.

Consider `O=C1CCCCC1`, for which the result was inactive.

With `CCCc1cc(=O)[nH]c(=S)[nH]1`, the outcome was active.

As for `CN(N=O)C(N)=O`, the outcome is “active; inactive”.

For `CC(CCl)OC(C)CCl` (centres undefined), the outcome was active.

Turning to `O=NN1CCCCCC1`, the outcome was active.

For the compound `[Cl-].[Cl-].[Hg+2]`, the outcome was active.

Take `FC(F)(Cl)Cl`: the outcome was inactive.

With `O=C(O)/C=C/c1ccc(O)c(O)c1`, the outcome was active.

Turning to `CC(C)Oc1ccc(Nc2ccccc2)cc1`, the outcome was inactive.

With `C[C@H]1CCCCN1N=O`, the outcome was active.

Take `O=[N+]([O-])c1ccccc1`: the result was active.

For `CN(C)C=O`, the outcome is “inactive; active”.

With `CCCCCN(CCCCC)N=O`, the outcome is “active; inactive”.

With `[O-][Cl+]O`, the outcome is “inactive; active”.

`COC(=O)c1ccc(C(=O)OC)cc1`: the outcome is “inactive; active”.

In the case of `CCCN=[N+]([O-])CCC`, the result was active.

Regarding `COc1ccccc1[N+](=O)[O-]`, the outcome was active.

For `CCOP(=S)(OCC)SC1OCCOC1SP(=S)(OCC)OCC` (centres undefined), the result was inactive.

With `[O]=[Mo](=[O])=[O]`, the result was active.

Consider `CN(C)C(=S)S[Se](SC(=S)N(C)C)(SC(=S)N(C)C)SC(=S)N(C)C`, for which the outcome was inactive.

For the compound `CC(O)CN(C)N=O` (centres undefined), the outcome was active.

As for `O=NN1CCOCC1`, the outcome was “active; inactive”.

As to `CC1CN(N=O)CC(C)N1C(=O)c1ccccc1` (centres undefined), the outcome was active.

As to `Cc1ccc(OP(=O)(Oc2ccc(C)cc2)Oc2ccc(C)cc2)cc1`, the outcome was inactive.

Consider `[Cl-].[Hg+]`, for which the outcome is “inactive; active”.

For the compound `CC(C)(c1ccc(O)cc1)c1ccc(O)cc1`, the outcome was “inactive; active”.

`O=C(O)Cc1c[nH]c2ccccc12`: the result was inactive.

As for `CCOc1ccc(NC(=O)CC(C)O)cc1` (centres undefined), the result was active.

On to `C=CCl`, for which the outcome is “active; inactive”.

As for `CC(=O)Nc1ccc(S(=O)(=O)O)c2cc(S(=O)(=O)O)c(N=Nc3ccc(N=Nc4ccc(S(=O)(=O)O)cc4)c4ccc(S(=O)(=O)O)cc34)c(O)c12`, the outcome was “inactive; active”.

Take `CCCC(Cl)CCC(Cl)CCC(Cl)CCC(Cl)CCC(Cl)CCC(Cl)CCC(C)Cl` (centres undefined): the result was active.

With `O=C1C=C(N2CC2)C(=O)C(N2CC2)=C1N1CC1`, the result was active.

Consider `O=NN(CC(=O)O)CC(=O)O`, for which the result was inactive.

In the case of `Cc1ccc(Cc2cnc(NCCSCc3ccc(CN(C)C)o3)[nH]c2=O)cn1`, the outcome was active.

Regarding `CCOCCc1c(-c2ccccc2)nc(N)n2ncnc12`, the outcome was “active; inactive”.

Regarding `O=c1[nH]cc(F)c(=O)[nH]1`, the outcome was “active; inactive”.

In the case of `C1CCNCC1`, the outcome is “inactive; active”.

On to `Cc1ccccc1N`, for which the outcome was active.

As to `OC[C@@H](O)[C@H]1O[C@@H]2O[C@H](C(Cl)(Cl)Cl)O[C@@H]2[C@H]1O`, the outcome was inactive.

Take `ClCc1ccccn1`: the outcome was inactive.

With `CCCCCCOc1cc(C)c(O)c(C)c1C`, the outcome was “inactive; active”.

Turning to `O=NN1CN2CN(C1)CN(N=O)C2`, the outcome was inactive.

Consider `O=NN1CCCC1c1cccnc1` (centres undefined), for which the result was active.

Take `COc1cc(/C=N/NC(=O)c2ccncc2)ccc1O`: the outcome was “active; inactive”.

Turning to `[N-]=[N+]=[N-]`, the outcome was “inactive; active”.

For the compound `C=CCc1ccc(O)c(OC)c1`, the result was inactive.

Take `O=[O+][O-]`: the result was active.

In the case of `C#C[C@]1(O)CC[C@H]2[C@@H]3CCc4cc(O)ccc4[C@H]3CC[C@@]21C`, the outcome was “active; inactive”.

On to `O=C1c2ccccc2C(=O)c2c(O)c(O)cc(O)c21`, for which the result was active.

As for `O=C(CCl)c1ccccc1`, the outcome was “inactive; active”.

In the case of `CN(C)N=O`, the outcome was active.

Regarding `CN1C(C(=O)Nc2ccccn2)=C(O)c2sc(Cl)cc2S1(=O)=O`, the outcome was inactive.
